Reference: patent publication US20030013041A1, “Optical data carrier comprising a cationic aminoheterocyclic dye as light-absorbent compound in the information layer” (priority 2001, published 2003)

Experiments:
Assay type in all cases: physicochemical
[1] = Absorption spectrum measured in solution; details: for λmax (methylene chloride): in methylene chloride; for λ1/2-λ1/10 (long wavelength flank): on the long wavelength flank; for λ1/2-λ1/10 (short wavelength flank): on the short wavelength flank; for λmax (methanol): in methanol
Description: In the case of a write-once optical data carrier according to the invention which is written on and read by means of the light of a blue laser, preference is also given to cationic aminoheterocyclic dyes whose absorption maximum λmax2 is in the range from 420 to 550 nm, where the wavelength λ½ at which the absorbance in the short wavelength flank of the absorption maximum at the wavelength λmax2 is half of the absorbance value at λmax2 and the wavelength λ 1/10 at which the absorbance in the short wavelength flank of the absorption maximum at the wavelength λmax2 is one tenth of the absorbance value at λmax2 are preferably not more than 50 nm apart. Such a cationic aminoheterocyclic dye preferably has no shorter-wavelength maximum λmax1 down to a wavelength of 350 nm, particularly preferably down to 320 nm, very particularly preferably down to 290 nm.
In the case of a write-once optical data carrier according to the invention which is written on and read by means of the light of a red laser, preference is given to cationic aminoheterocyclic dyes whose absorption maximum λmax2 is in the range from 500 to 650 nm, where the wavelength λ½ at which the absorbance in the long wavelength flank of the absorption maximum at the wavelength λmax2 is half of the absorbance value at λmax2 and the wavelength λ 1/10 at which the absorbance in the long wavelength flank of the absorption maximum at the wavelength λmax2 is one tenth of the absorbance value at λmax2 are preferably not more than 50 nm apart. Such a cationic aminoheterocyclic dye preferably has no longer-wavelength maximum λmax3 up to a wavelength of 750 nm, particularly preferably up to 800 nm, very particularly preferably up to 850 nm.
The absorption spectra are measured, for example, in solution.
Suitable cationic aminoheterocyclic dyes having the required spectral properties are, in particular, those in which the dipole moment change Δμ=|μg−μag|, i.e. the positive difference between the dipole moments in the ground state and in the first excited state, is very small, preferably <5 D, particularly preferably <2 D. A method of determining such a dipole moment change Ap is described, for example, in F. Wuirthner et al., Angew. Chem. 1997, 109, 2933, and in the literature cited therein. A low solvent-induced wavelength shift (methanol/methylene chloride) is likewise a suitable selection criterion. Preference is given to cationic aminoheterocyclic dyes whose solvent-induced wavelength shift Δλ=|λmethylene chloride−λmethanol|, i.e. the positive difference between the absorption wavelengths in the solvents methylene chloride and methanol, is <25 nm, particularly preferably <15 nm, very particularly preferably <5 nm.

Solubility in TFP = assay: Solubility in TFP
Film formation = assay: Film formation
Description: Apart from the abovementioned optical properties, the writeable information layer comprising light-absorbent organic substances has to have a substantially amorphous morphology to keep the noise signal during writing or reading as small as possible. For this reason, it is particularly preferred that crystallization of the light-absorbent substances be prevented in the application of the substances by spin coating from a solution, by vapour deposition and/or sublimation during subsequent covering with metallic or dielectric layers under reduced pressure.

| ε ([1]; at λmax in methylene chloride) | λmax (methylene chloride) [1] [nm] | λ1/2-λ1/10 (long wavelength flank) [1] [nm] | λ1/2-λ1/10 (short wavelength flank) [1] [nm] | Solubility (Solubility in TFP) [%] | ε ([1]; at λmax in methanol) | λmax (methanol) [1] [nm] | Film appearance (Film formation) | ε ([1]; solvent not stated, printed after λmax in methanol and methylene chloride) | Compound |
| --- | --- | --- | --- | --- | --- | --- | --- | --- | --- |
| – | – | 30 | 41 | > 2 | 87 670 l/mol cm | 551 | Glass-like film | – | CN(C)c1ccc(/C=C/C2=[N+](C)c3ccccc3C2(C)C)o1 [Example 2] |
| 43650 L/mol/cm | 623 | – | – | – | – | – | – | – | CN(c1ccccc1)c1nc2c(s1)C=C1S/C(=[N+](\C)c3ccccc3)N=C1C2(C)C [Example 8] |
| 98 554 l/mol cm | 543 | 14 | 34 | > 2 | 68 555 l/mol cm | 528 | Glass-like film | – | CCCCN(CCCC)c1ccc(/C=C/C2=[N+](C)c3ccccc3C2(C)C)s1 [Example 3] |

Second part, the molecule before the results:

| Compound | ε ([1]; at λmax in methylene chloride) | λmax (methylene chloride) [1] [nm] | λ1/2-λ1/10 (long wavelength flank) [1] [nm] | λ1/2-λ1/10 (short wavelength flank) [1] [nm] | Solubility (Solubility in TFP) [%] | ε ([1]; at λmax in methanol) | λmax (methanol) [1] [nm] | Film appearance (Film formation) | ε ([1]; solvent not stated, printed after λmax in methanol and methylene chloride) |
| --- | --- | --- | --- | --- | --- | --- | --- | --- | --- |
| CN(C)c1ccc(/C=C2\SC(=[N+]3CCOCC3)N=C2c2ccccc2)cc1 [Example 4] | 104 970 l/mol cm | 601 | 19 | 42 | > 2 | – | – | – | – |
| CC1(C)C2=NC(=[N+]3CCCC3)SC2=Cc2sc(N3CCCC3)nc21 [Example 7] | 37153 L/mol/cm | 616 | 27 | 50 | – | – | – | – | – |
| C(=C1/SC(=[N+]2CCOCC2)N=C1c1ccccc1)/c1sc(N2CCOCC2)nc1-c1ccccc1 [Example 1] | – | 587 | 14.5 | 42 | > 2 | – | 581 | – | 102 800 l/mol cm |
